We go through 27 compounds from patent US20250129067A1 (Progentos Therapeutics, Inc., priority 2021, published 2025).

Counter-ions that a name gives are not always drawn. Like-named read-outs stand apart in the source and are kept apart here.

In data set [1] the test system is GPR17+ cells (newly differentiated oligodendrocytes). Put plainly: In vivo OPC differentiation, GPR17+ cells in brain. The note with it: for In vivo GPR17+ cells, GPR17 Fold Induction (Over Vehicle): adult female C57BL/6 mice, PO or IP, treatment period 1-3 days, entire brain, fold change over vehicle treated animals.
Protocol: The ability of newly constructed compounds to drive OPC differentiation and myelination in vivo was tested. The ability of these compounds to drive OPC differentiation in vivo was tested using GPR17 as an indicator of newly differentiated oligodendrocytes.
Compounds were delivered PO or IP either QD or BID. Mice were dosed once, transiently, or continuously through the treatment period, which ranged from 1-3 days.
Mice were euthanized by isoflurane exposure and transcardially perfused with 14 mL of PBS (Sigma Cat #P4417-50TAB) followed by 22 mL of 3.2% paraformaldehyde in PBS. The brains were removed and postfixed for a minimum of 24 hours in 20 mL of 3.2% paraformaldehyde.
50-micron floating sections were cut using a Leica VT1200S vibratome. Every 24th section, extending through the antero-posterior extent of the brain, was stained. The selected brain sections were washed three times in PBS for 3 minutes each. The floating sections were incubated in the primary antibodies (see Table 10, below) diluted in blocking solution overnight at room temperature on a shaker. […] The next day, the sections were again washed three times in PBS for 3 minutes each and then incubated in the secondary antibodies diluted in blocking solution for 2 hours at room temperature on a shaker. After incubation, the sections were washed three times in PBS for 3 minutes each and mounted on a slide to be imaged using the Olympus Slide Scanner VS200.
The images were analyzed using a custom protocol developed using Visiopharm software to count GPR17+ cells. Cells were considered GPR17+ if they contained an Olig2 positive nucleus, and intense GPR 17 staining that filled their processes. Statistical analysis was done using one-way ANOVA with multiple comparison in GraphPad Prism software.
The test system of data set [2] is Oligodendrocyte progenitor cells (OPCs). Put plainly: In vitro OPC differentiation assay, GPR17 expression (immunocytochemistry). The note with it: 72 hours; for GPR17 Fold Induction (Over Vehicle; 5 μM): primary rat OPCs, 5 μM (10x; final 0.5 μM per method), percent GPR17+ cells as fold change over vehicle; for GPR17 Fold Induction (Over Vehicle; 3 μM): 3 μM (10× concentration, final 0.3 μM), fold change over vehicle.

For another data set, the target named is PDGFRα (Homo sapiens (Human), UniProt P16234). Put plainly: PDGFRα kinase enzyme assay (Promega PDGFRα Kinase Enzyme System, ADP-Glo). The format is biochemical. The note with it: 150 uM ATP. In a few lines:
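Read-out was ADP-Glo: remaining ATP depleted, ADP converted to luminescence and compared with a standard curve.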
A general note: In ADP-Glo the light output rises with the ADP produced.

[3] abbreviates: 20 ng purified PDGFRα, Poly (Glu4Tyr1) substrate, two hours, 11-point dose response, read-out: IC50 Values on PDGFRα Kinase Inhibition.
Where [4] appears, read: Mus musculus, po, 24 h, read-out: GPR17 Fold Induction (Over Vehicle).
Setting [5] is: 11-point dose response, 10,000 nM to 0.169 nM, BLQ = below limit of quantitation, read-out: IC50 Values on PDGFRα Kinase Inhibition, IC50.

Sequence of PDGFRα (P16234 24-1089): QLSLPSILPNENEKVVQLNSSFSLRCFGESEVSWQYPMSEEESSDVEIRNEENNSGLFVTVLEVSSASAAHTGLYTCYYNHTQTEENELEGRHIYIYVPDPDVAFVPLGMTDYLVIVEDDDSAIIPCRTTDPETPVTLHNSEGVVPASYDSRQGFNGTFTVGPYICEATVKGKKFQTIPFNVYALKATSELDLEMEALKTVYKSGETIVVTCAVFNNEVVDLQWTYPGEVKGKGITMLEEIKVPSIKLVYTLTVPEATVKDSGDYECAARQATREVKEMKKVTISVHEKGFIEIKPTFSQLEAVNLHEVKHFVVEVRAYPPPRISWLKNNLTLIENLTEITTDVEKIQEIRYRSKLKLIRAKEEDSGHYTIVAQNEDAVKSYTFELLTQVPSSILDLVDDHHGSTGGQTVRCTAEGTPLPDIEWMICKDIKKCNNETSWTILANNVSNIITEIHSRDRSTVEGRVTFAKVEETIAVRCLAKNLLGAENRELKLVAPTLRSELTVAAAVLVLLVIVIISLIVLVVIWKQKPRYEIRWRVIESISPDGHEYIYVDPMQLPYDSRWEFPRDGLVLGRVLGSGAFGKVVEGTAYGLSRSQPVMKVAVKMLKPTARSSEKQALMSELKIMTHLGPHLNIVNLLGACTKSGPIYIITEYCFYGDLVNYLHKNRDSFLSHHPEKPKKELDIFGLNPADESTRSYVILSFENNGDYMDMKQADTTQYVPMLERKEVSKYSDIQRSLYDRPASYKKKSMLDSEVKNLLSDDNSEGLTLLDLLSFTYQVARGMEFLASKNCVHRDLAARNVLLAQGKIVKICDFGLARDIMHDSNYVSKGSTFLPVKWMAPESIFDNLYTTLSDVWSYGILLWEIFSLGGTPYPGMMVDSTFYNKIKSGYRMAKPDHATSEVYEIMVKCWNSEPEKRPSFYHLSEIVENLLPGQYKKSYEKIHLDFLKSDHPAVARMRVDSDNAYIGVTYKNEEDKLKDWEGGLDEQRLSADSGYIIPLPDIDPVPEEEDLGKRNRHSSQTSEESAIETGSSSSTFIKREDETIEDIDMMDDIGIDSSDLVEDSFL

For `CCN(CC)CCNC(=O)c1c(C)[nH]c(/C=C2\C(=O)Nc3ccc(-c4csc(-c5ccccc5)n4)cc32)c1C` [Amcasertib, amcasertib, reference compound], the “In vivo GPR17+ cells, GPR17 Fold Induction (Over Vehicle)” value in data set [1] came to 1.49.
With `S=C(NCc1ccc2c(c1)OCO2)N1CCN(c2ncnc3c2oc2ccccc23)CC1` [Amuvatinib, amuvatinib, reference compound], the “In vivo GPR17+ cells, GPR17 Fold Induction (Over Vehicle)” value in data set [1] is 2.18.
Regarding `COc1cc2c(Oc3ccc4[nH]c(C)cc4c3F)ccnc2cc1OCC1(N)CC1` [Anlotinib HCl, anlotinib HCl, reference compound], the “GPR17 Fold Induction (Over Vehicle; 5 μM)” value in data set [2] amounted to 6.58. Further, the “In vivo GPR17+ cells, GPR17 Fold Induction (Over Vehicle)” value in data set [1] is 17.89. The 50% inhibitory concentration (IC50) at PDGFRα (setting [3]) amounted to 1.36 µM.
The like results for `Nc1nc(Nc2ccc3c(c2)CC[C@@H](N2CCCC2)CC3)nn1-c1cc2c(nn1)-c1ccccc1CCC2` [Bemcentinib, bemcentinib, reference compound] were, in that order, 2.99, 1.09 and 0.428 µM.
The matching figures for `COCCOc1ccc2c(c1)ncn2-c1ccc2cccc(N3CCC(N)CC3)c2n1` [CP-673451, reference compound]: 2.94, 3.52 and 0.115 µM.
Take `Cn1cc(-c2cnc3c(N4CCN(C(=O)OC(C)(C)C)CC4)cnn3c2)cn1` [Compound 2, tert-butyl 4-[6-(1-methyl-1H-pyrazol-4-yl)pyrazolo[1,5-a]pyrimidin-3-yl]piperazine-1-carboxylate]: in data set [2], the “GPR17 Fold Induction (Over Vehicle; 3 μM)” value was 1.46. Further, in data set [1] (setting [4]), the fold induction at 3.3 mg/kg was found to be 1.13. Besides, the IC50 at PDGFRα (setting [5]) was 1.46 µM.
For `Cn1cc(-c2ccc3c(N4CCN(C(=O)CC(C)(C)C)CC4)cnn3c2)cn1` [Compound 17, 3-[4-(3,3-dimethylbutanoyl)piperazin-1-yl]-6-(1-methyl-1H-pyrazol-4-yl)pyrazolo[1,5-a]pyridine], the “GPR17 Fold Induction (Over Vehicle; 3 μM)” value in data set [2] is recorded as 1.14. The fold induction at 3.3 mg/kg in data set [1] (setting [4]) worked out at 1.14. For the same compound, on PDGFRα (setting [5]), the IC50 turned out to be 1.6 µM.
For the compound `Cn1cc(-c2cn3c(N4CCN(c5ncc(Cc6ccccc6)cn5)CC4)cnc3cn2)cn1` [Compound 21, 3-[4-(5-benzylpyrimidin-2-yl)piperazin-1-yl]-6-(1-methyl-1H-pyrazol-4-yl)imidazo[1,2-a]pyrazine], the fold induction at 150 mg/kg in data set [1] (Mus musculus, ip, 24 h, read-out: GPR17 Fold Induction (Over Vehicle)) came to 1.48.
As for `Cn1cc(-c2ccc3c(C4CCN(c5ncc(Cc6ccccc6)cn5)CC4)cnn3c2)cn1` [Compound 63, 3-[1-(5-benzylpyrimidin-2-yl)piperidin-4-yl]-6-(1-methyl-1H-pyrazol-4-yl)pyrazolo[1,5-a]pyridine], in data set [2], the “GPR17 Fold Induction (Over Vehicle; 3 μM)” value is recorded as 8.97. Besides, the fold induction at 3 mg/kg in data set [1] (setting [4]) was found to be 1.83. Also, the IC50 on PDGFRα (setting [5]) worked out at 1.1 µM.
Consider `Cc1ccc(Cc2cnc(N3CCN(c4cnn5cc(-c6cnn(C)c6)ccc45)CC3)nc2)cc1` [Compound 67, 3-{4-[5-(4-methylbenzyl)pyrimidin-2-yl]piperazin-1-yl}-6-(1-methyl-1H-pyrazol-4-yl)pyrazolo[1,5-a]pyridine], for which the “GPR17 Fold Induction (Over Vehicle; 3 μM)” value in data set [2] was 3.41. The fold induction at 10 mg/kg in data set [1] (setting [4]) was 9.4. Besides, the IC50 on PDGFRα (setting [5]) was found to be 0.784 µM.
With `Cn1cc(-c2ccc3c(N4CCN(c5ncc(C(O)C6CCOCC6)cn5)CC4)cnn3c2)cn1` (stereo not shown) [Compound 69, (2-{4-[6-(1-methyl-1H-pyrazol-4-yl)pyrazolo[1,5-a]pyridin-3-yl]piperazin-1-yl}pyrimidin-5-yl)(tetrahydro-2H-pyran-4-yl)methanol], the “GPR17 Fold Induction (Over Vehicle; 3 μM)” value in data set [2] is recorded as 4.53. In addition, in data set [1] (setting [4]), the fold induction at 3 mg/kg was 1.09 and the fold induction at 30 mg/kg amounted to 2.34. Besides, the 50% inhibitory concentration (IC50) at PDGFRα (setting [5]) is 0.154 µM.
Take `C[C@@H](OC(=O)N1CCN(c2cnn3cc(-c4cnn(C)c4)cnc23)CC1)c1ccccc1` [Compound 73, (1R)-1-Phenylethyl 4-[6-(1-methyl-1H-pyrazol-4-yl)pyrazolo[1,5-a]pyrimidin-3-yl]piperazine-1-carboxylate]: in data set [2], the “GPR17 Fold Induction (Over Vehicle; 3 μM)” value is 6.68. Moreover, the fold induction at 3 mg/kg in data set [1] (setting [4]) is 1.77. The IC50 on PDGFRα (setting [5]) is 0.116 µM.
Turning to `C[C@@H](OC(=O)N1CCN(c2cnn3cc(-c4cnn(C)c4)ccc23)CC1)c1ccc(F)cc1` [Compound 77, (1R)-1-(4-Fluorophenyl)ethyl 4-[6-(1-methyl-1H-pyrazol-4-yl)pyrazolo[1,5-a]pyridin-3-yl]piperazine-1-carboxylate], in data set [2], the “GPR17 Fold Induction (Over Vehicle; 3 μM)” value was found to be 7.12. The fold induction at 3 mg/kg in data set [1] (setting [4]) was determined as 8.64. Besides, the “IC50 Values on PDGFRα Kinase Inhibition, IC50 (nM)” value on PDGFRα (11-point dose response, 10,000 nM to 0.169 nM, BLQ = below limit of quantitation) was “BLQ”.
Consider `C[C@@H](OC(=O)N1CCN(c2cnn3cc(-c4cnn(C)c4)ccc23)CC1)c1cccc(F)c1` [Compound 79, (1R)-1-(3-Fluorophenyl)ethyl 4-[6-(1-methyl-1H-pyrazol-4-yl)pyrazolo[1,5-a]pyridin-3-yl]piperazine-1-carboxylate], for which the “GPR17 Fold Induction (Over Vehicle; 3 μM)” value in data set [2] came to 5.46. For the same compound, the fold induction at 3 mg/kg in data set [1] (setting [4]) is 2.81. Besides, on PDGFRα (setting [5]), the IC50 amounted to 0.0161 µM.
Turning to `Cn1cc(-c2ccc3c(N4CCC(c5ncc(Cc6ccccc6)cn5)CC4)cnn3c2)cn1` [Compound 148, 3-(4-(5-benzylpyrimidin-2-yl)piperidin-1-yl)-6-(1-methyl-1H-pyrazol-4-yl)pyrazolo[1,5-a]pyridine], the “GPR17 Fold Induction (Over Vehicle; 3 μM)” value in data set [2] is 7.82. Also, the fold induction at 3 mg/kg in data set [1] (setting [4]) was found to be 1.22. Besides, the IC50 at PDGFRα (setting [5]) is 8.16 µM.
The matching figures for `Cn1cc(-c2ccc3c(N4CCN(c5ccc(Cc6ccccc6)nc5)CC4)cnn3c2)cn1` [Compound 151, 3-(4-(6-benzylpyridin-3-yl)piperazin-1-yl)-6-(1-methyl-1H-pyrazol-4-yl)pyrazolo[1,5-a]pyridine]: 20.40, 1.73 and 2.78 µM.
In the case of `Cn1cc(-c2ccc3c(N4CCN(c5ncn(Cc6ccccc6)n5)CC4)cnn3c2)cn1` [Compound 156, 3-(4-(1-benzyl-1H-1,2,4-triazol-3-yl)piperazin-1-yl)-6-(1-methyl-1H-pyrazol-4-yl)pyrazolo[1,5-a]pyridine], the “GPR17 Fold Induction (Over Vehicle; 3 μM)” value in data set [2] is reported as 3.92. In addition, the fold induction at 3 mg/kg in data set [1] (setting [4]) worked out at 11.5. The IC50 on PDGFRα (setting [5]) is 0.245 µM.
In the case of `Cn1cc(-c2ccc3c(N4CCN(S(=O)(=O)N5CCCCC5)CC4)cnn3c2)cn1` [Compound 157, 6-(1-methyl-1H-pyrazol-4-yl)-3-(4-(piperidin-1-ylsulfonyl)piperazin-1-yl)pyrazolo[1,5-a]pyridine], the “GPR17 Fold Induction (Over Vehicle; 3 μM)” value in data set [2] turned out to be 2.80. Also, the fold induction at 30 mg/kg in data set [1] (setting [4]) was found to be 1.91. The IC50 at PDGFRα (setting [5]) is 2.1 µM.
With `CC1CC(COC(=O)N2CCN(c3cnn4cc(-c5cnn(C)c5)ccc34)CC2)C1` (stereo not shown) [Compound 310, (3-methylcyclobutyl)methyl 4-[6-(1-methyl-1H-pyrazol-4-yl)pyrazolo[1,5-a]pyridin-3-yl]piperazine-1-carboxylate], in data set [2], the “GPR17 Fold Induction (Over Vehicle; 3 μM)” value worked out at 4.86. The IC50 at PDGFRα (setting [5]) was over 10 µM.
The like results for `Cn1cc(-c2ccc3c(N4CCN(C(=O)O[C@@H]5CCc6cc(Cl)ccc65)CC4)cnn3c2)cn1` [Compound 314, (1R)-5-chloro-2,3-dihydro-1H-inden-1-yl 4-[6-(1-methyl-1H-pyrazol-4-yl)pyrazolo[1,5-a]pyridin-3-yl]piperazine-1-carboxylate] were, in that order, 1.64 and 7.55 µM.
For the compound `COC(=O)[C@@]1(O)C[C@H]2O[C@]1(C)n1c3ccccc3c3c4c(c5c6ccccc6n2c5c31)C(=O)NC4` [Compound K252a, K252a, reference compound], the “GPR17 Fold Induction (Over Vehicle; 5 μM)” value in data set [2] came out at 2.53. For the same compound, the IC50 at PDGFRα (setting [3]) was found to be 0.427 µM.
Consider `Cc1ccc(F)c(NC(=O)Nc2ccc(-c3cccc4[nH]nc(N)c34)cc2)c1` [Linifanib (ABT-869), linifanib, reference compound], for which, in data set [2], the “GPR17 Fold Induction (Over Vehicle; 5 μM)” value worked out at 4.68. On PDGFRα (setting [3]), the IC50 worked out at 1.21 µM.
Consider `CN(C[C@@H]1COCCO1)S(=O)(=O)Nc1ccc2ccc3ncc(-c4cnn(C)c4)cc3c(=O)c2c1` [MK-2461, reference compound], for which, in data set [1], the “In vivo GPR17+ cells, GPR17 Fold Induction (Over Vehicle)” value was 1.47.
Still for that read-out and setting: then `Cc1[nH]c(/C=C2\C(=O)Nc3ccccc32)c(C)c1CCC(=O)O` [Orantinib, orantinib, reference compound], with 2.43; and `Cc1ccccc1C(OCCN(C)C)c1ccccc1` (stereo not shown) [Orphenadrine], with 1.07.
Consider `Cc1[nH]c(/C=C2\C(=O)Nc3ccc(F)cc32)c(C)c1C(=O)NC[C@H](O)CN1CCOCC1` [SU-14813, reference compound], for which, in data set [2], the “GPR17 Fold Induction (Over Vehicle; 5 μM)” value is 4.12. The “In vivo GPR17+ cells, GPR17 Fold Induction (Over Vehicle)” value in data set [1] was determined as 2.63.
Regarding `COc1ccc(-c2cncc(N[C@@H](C)c3cccc(NC(=O)c4cncc(C)c4)c3)n2)cc1OC` [Seralutinib, seralutinib, reference compound], in data set [2], the “GPR17 Fold Induction (Over Vehicle; 5 μM)” value is 3.53. Also, the IC50 at PDGFRα (setting [3]) was determined as 0.228 µM.

What is called IC50 is the point on the concentration scale where inhibition reaches its midpoint.
